Source: article PMC2787382 (The Journal of Biological Chemistry, 2009)

Legend:
[1] = biological target: dP2XA (Dictyostelium discoideum, UniProt Q86JM7); assay: two-electrode voltage clamp, Xenopus oocytes, peak current; assay type: cell-based
[2] = biological target: T1, dP2XE (Dictyostelium discoideum, UniProt Q54JH4); assay: cell-based
T1 sequence (Q54JH4 1-388): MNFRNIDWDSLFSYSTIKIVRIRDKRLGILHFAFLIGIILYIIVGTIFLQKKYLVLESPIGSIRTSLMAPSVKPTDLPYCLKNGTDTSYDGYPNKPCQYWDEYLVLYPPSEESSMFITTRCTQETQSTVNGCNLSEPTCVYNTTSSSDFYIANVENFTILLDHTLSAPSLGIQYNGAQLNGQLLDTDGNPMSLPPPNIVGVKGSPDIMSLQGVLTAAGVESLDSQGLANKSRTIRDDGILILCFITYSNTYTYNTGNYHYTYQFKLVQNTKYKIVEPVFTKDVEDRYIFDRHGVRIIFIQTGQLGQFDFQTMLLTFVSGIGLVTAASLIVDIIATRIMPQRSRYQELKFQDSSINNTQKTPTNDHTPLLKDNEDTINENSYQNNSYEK

[3] = biological target: T2, dP2XB (Dictyostelium discoideum, UniProt Q553Y1); assay: two-electrode voltage clamp, Xenopus oocytes, peak current; assay type: cell-based
T2 sequence (Q553Y1 1-369): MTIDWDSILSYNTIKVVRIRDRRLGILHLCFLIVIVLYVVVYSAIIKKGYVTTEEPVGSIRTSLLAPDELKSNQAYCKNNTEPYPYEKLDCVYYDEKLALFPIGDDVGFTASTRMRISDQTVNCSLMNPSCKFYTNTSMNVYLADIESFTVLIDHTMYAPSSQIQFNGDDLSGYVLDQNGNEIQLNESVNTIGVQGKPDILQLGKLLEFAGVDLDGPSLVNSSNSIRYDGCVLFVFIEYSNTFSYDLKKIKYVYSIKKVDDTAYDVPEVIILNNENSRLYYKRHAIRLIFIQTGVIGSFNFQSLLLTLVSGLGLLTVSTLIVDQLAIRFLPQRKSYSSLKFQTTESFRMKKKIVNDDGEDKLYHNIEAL

[4] = biological target: T1, dP2XE; assay: as above; assay type: cell-based; details: weak partial agonist; ND98K+, pH 6.2, −70 mV, room temperature

dP2XA, sequence (Q86JM7 whole entry): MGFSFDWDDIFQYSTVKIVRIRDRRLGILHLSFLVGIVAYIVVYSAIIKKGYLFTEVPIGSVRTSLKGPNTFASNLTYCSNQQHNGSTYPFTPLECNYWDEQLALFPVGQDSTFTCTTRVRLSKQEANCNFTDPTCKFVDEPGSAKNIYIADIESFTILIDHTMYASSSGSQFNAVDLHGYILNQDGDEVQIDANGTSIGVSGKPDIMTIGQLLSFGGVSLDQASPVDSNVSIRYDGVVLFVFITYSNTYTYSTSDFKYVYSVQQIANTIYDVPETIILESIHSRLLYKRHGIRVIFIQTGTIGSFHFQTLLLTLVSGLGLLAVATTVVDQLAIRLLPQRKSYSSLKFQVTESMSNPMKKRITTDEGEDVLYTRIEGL

| EC50 [1] [µM] | EC50 [2] [µM] | EC50 [3] [µM] | maximal response, % that of ATP [4] [%] | Structure (SMILES) |
| --- | --- | --- | --- | --- |
| 97 | 511 | 266 | – | Nc1ncnc2c1ncn2[C@@H]1O[C@H](COP(=O)(O)OP(=O)(O)OP(=O)(O)O)[C@@H](O)[C@H]1O [ATP] |
| 3.1 | – | 85 | 22.3 ± 6.4 | Nc1ncnc2c1ncn2[C@@H]1O[C@H](COP(=O)(O)OP(=O)(O)NP(=O)(O)O)[C@@H](O)[C@H]1O [β,γ-Imido-ATP] |
